This note sets out measurements from patent publication US8916575B2, “Quinazoline derivatives for the treatment of viral infections and further diseases” (Janssen R&D Ireland, priority 2011, dated 2014).

Test [1] concerns the target T1, human TLR7 (Homo sapiens, UniProt Q9NYK1).
T1 construct: expressed in transfected cells; host or cells: HEK293
T1 sequence (Q9NYK1 27-1049): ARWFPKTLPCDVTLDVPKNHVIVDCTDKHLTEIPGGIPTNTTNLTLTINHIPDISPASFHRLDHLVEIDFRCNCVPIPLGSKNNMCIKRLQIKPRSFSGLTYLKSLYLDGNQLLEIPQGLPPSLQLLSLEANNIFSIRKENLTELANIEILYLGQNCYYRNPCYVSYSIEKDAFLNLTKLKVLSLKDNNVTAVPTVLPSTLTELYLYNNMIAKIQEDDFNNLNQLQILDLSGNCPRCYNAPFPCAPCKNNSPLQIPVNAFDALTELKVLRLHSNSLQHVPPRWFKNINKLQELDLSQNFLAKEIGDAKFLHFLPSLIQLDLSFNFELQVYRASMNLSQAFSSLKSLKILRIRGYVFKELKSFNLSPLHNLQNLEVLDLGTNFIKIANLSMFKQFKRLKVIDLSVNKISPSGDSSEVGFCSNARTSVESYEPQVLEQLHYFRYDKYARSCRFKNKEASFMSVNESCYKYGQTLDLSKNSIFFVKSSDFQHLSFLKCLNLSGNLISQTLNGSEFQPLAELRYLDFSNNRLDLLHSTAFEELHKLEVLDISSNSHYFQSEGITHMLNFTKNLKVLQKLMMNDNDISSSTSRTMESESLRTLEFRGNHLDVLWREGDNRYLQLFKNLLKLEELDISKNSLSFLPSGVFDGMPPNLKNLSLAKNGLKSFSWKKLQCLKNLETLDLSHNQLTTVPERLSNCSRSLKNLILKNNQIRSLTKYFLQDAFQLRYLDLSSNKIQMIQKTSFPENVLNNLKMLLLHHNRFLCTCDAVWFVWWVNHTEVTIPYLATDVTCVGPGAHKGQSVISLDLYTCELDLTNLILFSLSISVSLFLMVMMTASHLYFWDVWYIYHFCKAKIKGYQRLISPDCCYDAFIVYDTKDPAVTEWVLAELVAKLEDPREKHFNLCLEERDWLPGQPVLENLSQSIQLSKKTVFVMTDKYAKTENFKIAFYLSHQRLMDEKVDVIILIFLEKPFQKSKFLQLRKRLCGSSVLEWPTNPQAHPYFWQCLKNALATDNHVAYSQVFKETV
Put plainly: TLR7 wild type NFκB-luc cellular reporter assay. Type of test: cell-based. Also noted: unit not given here. Conditions: HEK293 NFκB-luc reporter, 6 hours incubation; for TLR7-wt (LEC): second part of table. As for the experimental part: (§1) The ability of compounds to activate human TLR7 and/or TLR8 was assessed in a cellular reporter assay using HEK293 cells transiently transfected with a TLR7 or TLR8 expression vector and NFκB-luc reporter construct. In one instance the TLR expression construct expresses the respective wild type sequence or a mutant sequence comprising a deletion in the second leucine-rich repeat of the TLR.
Briefly, HEK293 cells were grown in culture medium (DMEM supplemented with 10% FCS and 2 mM Glutamine). For transfection of cells in 10 cm dishes, cells were detached with Trypsin-EDTA, transfected with a mix of CMV-TLR7 or TLR8 plasmid (750 ng), NFκB-luc plasmid (375 ng) and a transfection reagent and incubated 24 hours at 37° C. in a humidified 5% CO2 atmosphere. Transfected cells were then detached with Trypsin-EDTA, washed in PBS and resuspended in medium to a density of 1.67×10^5 cells/mL. Thirty microliters of cells were then dispensed into each well in 384-well plates, where 10 μL of compound in 4% DMSO was already present. […] Dose response curves were generated from measurements performed in quadruplicates. Lowest effective concentrations (LEC) values, defined as the concentration that induces an effect which is at least two fold above the standard deviation of the assay, were determined for each compound.
(In general: In a reporter assay the amount or activity of a reporter protein is the signal.)

In test [2] the target is T2, human TLR8 (Homo sapiens, UniProt Q9NR97).
T2 construct: expressed in transfected cells; host or cells: HEK293
T2 sequence (Q9NR97 27-1041): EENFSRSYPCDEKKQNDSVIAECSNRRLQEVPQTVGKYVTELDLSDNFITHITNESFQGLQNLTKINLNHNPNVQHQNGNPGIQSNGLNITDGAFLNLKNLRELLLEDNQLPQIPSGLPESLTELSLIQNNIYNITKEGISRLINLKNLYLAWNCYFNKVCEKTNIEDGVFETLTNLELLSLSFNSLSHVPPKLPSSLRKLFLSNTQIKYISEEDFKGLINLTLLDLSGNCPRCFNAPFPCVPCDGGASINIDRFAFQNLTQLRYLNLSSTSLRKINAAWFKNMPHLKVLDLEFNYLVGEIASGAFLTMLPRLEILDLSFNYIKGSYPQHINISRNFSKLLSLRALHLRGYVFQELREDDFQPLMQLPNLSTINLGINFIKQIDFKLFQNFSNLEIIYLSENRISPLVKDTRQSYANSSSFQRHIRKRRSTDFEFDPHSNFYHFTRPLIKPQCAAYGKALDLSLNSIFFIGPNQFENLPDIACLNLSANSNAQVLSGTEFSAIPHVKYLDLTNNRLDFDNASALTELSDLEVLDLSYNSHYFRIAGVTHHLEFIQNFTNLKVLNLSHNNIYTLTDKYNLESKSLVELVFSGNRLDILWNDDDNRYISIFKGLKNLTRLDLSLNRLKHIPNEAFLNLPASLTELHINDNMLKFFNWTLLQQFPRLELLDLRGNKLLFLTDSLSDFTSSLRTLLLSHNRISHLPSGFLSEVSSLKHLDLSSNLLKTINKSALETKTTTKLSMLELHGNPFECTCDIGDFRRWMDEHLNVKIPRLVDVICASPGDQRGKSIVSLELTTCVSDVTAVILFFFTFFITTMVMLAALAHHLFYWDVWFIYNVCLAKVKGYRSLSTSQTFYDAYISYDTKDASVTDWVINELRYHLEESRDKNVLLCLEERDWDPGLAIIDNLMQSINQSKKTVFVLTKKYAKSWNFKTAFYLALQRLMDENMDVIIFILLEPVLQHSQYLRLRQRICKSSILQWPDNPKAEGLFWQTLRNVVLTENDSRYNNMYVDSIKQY
As to the kind of experiment: TLR8 wild type NFκB-luc cellular reporter assay. Type of test: cell-based. Also noted: unit not given here. Conditions: HEK293 NFκB-luc reporter, 6 hours incubation; for TLR8-wt (LEC): second part of table. As for the experimental part: as §1
(§2) Briefly, HEK293 cells were grown in culture medium (DMEM supplemented with 10% FCS and 2 mM Glutamine). For transfection of cells in 10 cm dishes, cells were detached with Trypsin-EDTA, transfected with a mix of CMV-TLR7 or TLR8 plasmid (750 ng), NFκB-luc plasmid (375 ng) and a transfection reagent and incubated 24 hours at 37° C. in a humidified 5% CO2 atmosphere. Transfected cells were then detached with Trypsin-EDTA, washed in PBS and resuspended in medium to a density of 1.67×10^5 cells/mL. Thirty microliters of cells were then dispensed into each well in 384-well plates, where 10 μL of compound in 4% DMSO was already present. Following 6 hours incubation at 37° C., 5% CO2, the luciferase activity was determined by adding 15 μl of Steady Lite Plus substrate (Perkin Elmer) to each well and readout performed on a ViewLux ultraHTS microplate imager (Perkin Elmer). Dose response curves were generated from measurements performed in quadruplicates. Lowest effective concentrations (LEC) values, defined as the concentration that induces an effect which is at least two fold above the standard deviation of the assay, were determined for each compound.

Test [3] deals with human TLR8 mutant (dIRR2). Put plainly: TLR8 mutant (deletion in second leucine-rich repeat) NFκB-luc cellular reporter assay. It counts as cell-based. Also noted: unit not given here. Conditions: HEK293 NFκB-luc reporter, mutant TLR8, 6 hours incubation. Here is the method:
as §1, §2

Test [4] relates to human TLR7 mutant (dIRR2). Put plainly: TLR7 mutant (deletion in second leucine-rich repeat) NFκB-luc cellular reporter assay. It counts as cell-based. The following applies: HEK293 NFκB-luc reporter, mutant TLR7, 6 hours incubation. Also noted: unit not given here. Here is the method: as §1, §2
In test [5] the test system is HCV replicon (Huh-7 luc/neo cells). Put plainly: Suppression of HCV replicon replication by conditioned media from PBMC. It counts as cell-based, HCV type 1b. Conditions: Hepatitis C virus, compound concentration applied to PBMCs giving 50% reduction of replicon luciferase activity, read-out: PBMC-HUH7_EC50. Here is the method: Activation of human TLR7 results in robust production of interferon by plasmacytoid dendritic cells present in human blood. The potential of compounds to induce interferon was evaluated by looking at the antiviral activity in the HCV replicon system upon incubation with conditioned media from peripheral blood mononuclear cells (PBMC). The HCV replicon assay is based on a bicistronic expression construct, as described by Lohmann et al. (Science (1999) 285: 110-113; Journal of Virology (2003) 77: 3007-15 3019) with modifications described by Krieger et al. (Journal of Virology (2001) 75: 4614-4624). The assay utilized the stably transfected cell line Huh-7 luc/neo harboring an RNA encoding a bicistronic expression construct comprising the wild type NS3-NS5B regions of HCV type 1b translated from an Internal Ribosome Entry Site (IRES) from encephalomyocarditis virus (EMCV), preceded by a reporter gene (Firefly-luciferase) and a selectable marker gene (neoR, neomycine phosphotransferase). The construct is flanked by 5′ and 3′ NTRs (non-translated regions) from HCV type 1b. Continued culture of the replicon cells in the presence of G418 (neoR) is dependent on the replication of the HCV RNA. The stably transfected replicon cells that replicate HCV RNA autonomously and to high levels, encoding inter alia luciferase, were used for profiling of the conditioned cell culture media.
Briefly, PBMCs were prepared from buffy coats of at least two donors using a standard Ficoll centrifugation protocol. Isolated PBMCs were resuspended in RPMI medium supplemented with 10% human AB serum and 2×10^5 cells/well were dispensed into 384-well plates containing compounds (70 μL total volume). After overnight incubation, 10 μL of supernatant was transferred to 384-well plates containing 2.2×10^3 replicon cells/well in 30 μL (plated the day before). Following 24 hours of incubation, replication was measured by assaying luciferase activity using 40 μL/well Steady Lite Plus substrate (Perkin Elmer) and measured with ViewLux ultraHTS microplate imager (Perkin Elmer). The inhibitory activity of each compound on the Huh7-luc/neo cells were reported as EC50 values, defined as the compound concentration applied to the PBMCs resulting in a 50% reduction of luciferase activity which in turn indicates the degree of replication of the replicon RNA on transfer of a defined amount of PBMC culture medium. Recombinant interferon α-2a (Roferon-A) was used as a standard control compound.
Background: In antiviral work, replicon cells carry a viral genome segment that copies itself.

Each structure is given as a SMILES string. Some results are limits rather than exact numbers.

For `CCCCNc1nc(N)nc2cccc(CCc3cccc(OC)c3)c12` [Compound 97], the “TLR7-wt (LEC)” value in test [1] was determined as 0.6. Moreover, the “TLR8-wt (LEC)” value in test [2] is 0.83.
The corresponding values for `CCCCNc1nc(N)nc2ccc(C(C)O)cc12` (centres unmarked) [Compound 23] are 10.23 and 5.05.
On the same counts, the results for `CCCCNc1nc(N)nc2ccc(C#N)cc12` [Compound 19] are above 25 and 7.05.
On the same counts, the results for `CCCCNc1nc(N)nc2cccc(CCc3ccccn3)c12` [Compound 12] are 1.66 and 0.79.
`CC[C@H](C)[C@@H](CO)Nc1nc(N)nc2cc(OC)c(OC)cc12` [Compound 7] returned a TLR8-dIRR2_LEC in test [3] of 9.0. Also, in test [2], the TLR8-wt_LEC came to 13.8. This compound showed a TLR7-dIRR2_LEC in test [4] of 3.8. The EC50 in test [5] worked out at 12.4 µM.
In the case of `CCCCNc1nc(N)nc2cc(C(=O)N(C)C)ccc12` [Compound 94], the “TLR7-wt (LEC)” value in test [1] is 0.07. Also, in test [2], the “TLR8-wt (LEC)” value turned out to be 0.48.
Turning to `CCCCNc1nc(N)nc2cc(C(=O)NCc3ccccc3)ccc12` [Compound 95], in test [1], the “TLR7-wt (LEC)” value worked out at 0.54. Also, the “TLR8-wt (LEC)” value in test [2] was 0.42.
With `CCCCNc1nc(N)nc2cc(C(=O)NCc3ccccn3)ccc12` [Compound 93], in test [1], the “TLR7-wt (LEC)” value stood at 0.77. In addition, the “TLR8-wt (LEC)” value in test [2] was found to be 1.69.
With `CCCCNc1nc(N)nc2ccccc12` [Compound 8], the TLR8-dIRR2_LEC in test [3] worked out at 0.02. The TLR7-wt_LEC in test [1] (lowest effective concentration) is listed as 0.1. In test [2], this compound came in with a TLR8-wt_LEC of 0.1. In test [4], this compound showed a TLR7-dIRR2_LEC of 0.02.
For the compound `CCCCNc1nc(N)nc2cc(C(=O)N3CCOCC3)ccc12` [Compound 91], the “TLR7-wt (LEC)” value in test [1] came to 0.13. For the same compound, the “TLR8-wt (LEC)” value in test [2] is on record as 0.53.
On the same counts, the results for `CCCCNc1nc(N)nc2cccc(OCC(=O)OC)c12` [Compound 98] are 0.21 and 0.31.
Take `CCCCNc1nc(N)nc2ccc(C(C)=O)cc12` [Compound 22]: the “TLR7-wt (LEC)” value in test [1] was 6.07. Besides, the “TLR8-wt (LEC)” value in test [2] stood at 1.95.
The corresponding values for `CCCCNC(=O)c1cccc2nc(N)nc(NCCCC)c12` [Compound 15] are 0.49 and 3.27.
The corresponding values for `CCCCNc1nc(N)nc2ccc(-c3cnn(C)c3)cc12` [Compound 20] are above 25 and 2.55.
The corresponding values for `CCCCNc1nc(N)nc2ccc(CCC(C)O)cc12` (centres unmarked) [Compound 16] are 0.57 and 0.73.
For `CCCCNc1nc(N)nc2cc(C(=O)Nc3cccnc3)ccc12` [Compound 90], the “TLR7-wt (LEC)” value in test [1] stood at 0.42.
As to `CCCCNc1nc(N)nc2cccc(CCc3ccc(OC)cc3)c12` [Compound 96], the “TLR7-wt (LEC)” value in test [1] is given as 2.7. Besides, the “TLR8-wt (LEC)” value in test [2] is reported as 16.
The corresponding values for `CCCCNc1nc(N)nc2ccc(C#CC(C)O)cc12` (centres unmarked) [Compound 14] are 0.65 and 4.77.
The corresponding values for `CCCCNc1nc(N)nc2cc(C(=O)NCCN(C)C)ccc12` [Compound 92] are 1.53 and 5.87.
